Experimental data published in patent US9187472B2 (AbbVie Inc., priority 2012, dated 2015).

System: PC3 cells
Experiment: NAMPT Cell Proliferation Assay
Assay type: cell-based
Details: Homo sapiens, PC-3, 120 h, 5 days incubation, cell viability by Cell Titer Glo
Method in brief: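 Following overnight attachment in RPMI with 10% heat-inactivated FBS, PC3 cells at 500 per well receive compounds spanning 10 μM down to 1×10^−5 μM. Growth is assessed by luminescent viability read after 5 days.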

SMILES	IC50 [nM]
CC(C(=O)N1CCC(c2ccc(C(=O)NCc3ccn4ccnc4c3)cc2)CC1)c1ccccc1 (centres unmarked) [Example 926, N-(imidazo[1,2-a]pyridin-7-ylmethyl)-4-[1-(2-phenylpropanoyl)piperidin-4-yl]benzamide]	9.69
COc1cccc(OC)c1C(=O)N1CCC(c2ccc(C(=O)NCc3ccn4ccnc4c3)cc2)CC1 [Example 927, 4-[1-(2,6-dimethoxybenzoyl)piperidin-4-yl]-N-(imidazo[1,2-a]pyridin-7-ylmethyl)benzamide]	7.13
CCN(CC)CCC(=O)N1CCC(c2ccc(C(=O)NCc3ccn4ccnc4c3)cc2)CC1 [Example 928, 4-[1-(N,N-diethyl-beta-alanyl)piperidin-4-yl]-N-(imidazo[1,2-a]pyridin-7-ylmethyl)benzamide]	106
CC(C)CS(=O)(=O)CC(=O)N1CCC(c2ccc(C(=O)NCc3ccn4ccnc4c3)cc2)CC1 [Example 929, N-(imidazo[1,2-a]pyridin-7-ylmethyl)-4-(1-{[(2-methylpropyl)sulfonyl]acetyl}piperidin-4-yl)benzamide]	24.7
CC(Oc1ccccc1)C(=O)N1CCC(c2ccc(C(=O)NCc3ccn4ccnc4c3)cc2)CC1 (centres unmarked) [Example 930, N-(imidazo[1,2-a]pyridin-7-ylmethyl)-4-[1-(2-phenoxypropanoyl)piperidin-4-yl]benzamide]	2.09
C[C@H]1CCCC[C@H]1OCC(=O)N1CCC(c2ccc(C(=O)NCc3ccn4ccnc4c3)cc2)CC1 [Example 931, N-(imidazo[1,2-a]pyridin-7-ylmethyl)-4-[1-({[(1R,2S)-2-methylcyclohexyl]oxy}acetyl)piperidin-4-yl]benzamide]	6.77
Cc1cc(C(=O)N2CCC(c3ccc(C(=O)NCc4ccn5ccnc5c4)cc3)CC2)cc(Cl)n1 [Example 932, 4-{1-[(2-chloro-6-methylpyridin-4-yl)carbonyl]piperidin-4-yl}-N-(imidazo[1,2-a]pyridin-7-ylmethyl)benzamide]	30.3
COc1cccc(CC(=O)N2CCC(c3ccc(C(=O)NCc4ccn5ccnc5c4)cc3)CC2)c1 [Example 933, N-(imidazo[1,2-a]pyridin-7-ylmethyl)-4-{1-[(3-methoxyphenyl)acetyl]piperidin-4-yl}benzamide]	71.7
N#Cc1ccc(C(=O)N2CCC(c3ccc(C(=O)NCc4ccn5ccnc5c4)cc3)CC2)c(Cl)c1 [Example 934, 4-[1-(2-chloro-4-cyanobenzoyl)piperidin-4-yl]-N-(imidazo[1,2-a]pyridin-7-ylmethyl)benzamide]	6.38
C/C=C(\C)C(=O)N1CCC(c2ccc(C(=O)NCc3ccn4ccnc4c3)cc2)CC1 [Example 935, N-(imidazo[1,2-a]pyridin-7-ylmethyl)-4-{1-[(2E)-2-methylbut-2-enoyl]piperidin-4-yl}benzamide]	10.3
COc1ccc(C)cc1CC(=O)N1CCC(c2ccc(C(=O)NCc3ccn4ccnc4c3)cc2)CC1 [Example 936, N-(imidazo[1,2-a]pyridin-7-ylmethyl)-4-{1-[(2-methoxy-5-methylphenyl)acetyl]piperidin-4-yl}benzamide]	32.5
Cc1cccc(C(=O)N2CCC(c3ccc(C(=O)NCc4ccn5ccnc5c4)cc3)CC2)c1O [Example 937, 4-[1-(2-hydroxy-3-methylbenzoyl)piperidin-4-yl]-N-(imidazo[1,2-a]pyridin-7-ylmethyl)benzamide]	80.9
O=C(NCc1ccn2ccnc2c1)Nc1ccc(C2CCN(C(=O)c3cccnc3Cl)CC2)cc1 [Example 938, 1-(4-{1-[(2-chloropyridin-3-yl)carbonyl]piperidin-4-yl}phenyl)-3-(imidazo[1,2-a]pyridin-7-ylmethyl)urea]	6.27
CC(C)=CC(=O)N1CCC(c2ccc(NC(=O)NCc3ccn4ccnc4c3)cc2)CC1 [Example 939, 1-(imidazo[1,2-a]pyridin-7-ylmethyl)-3-{4-[1-(3-methylbut-2-enoyl)piperidin-4-yl]phenyl}urea]	> 10000
CC(C)(C)CC(=O)N1CCC(c2ccc(NC(=O)NCc3ccn4ccnc4c3)cc2)CC1 [Example 940, 1-{4-[1-(3,3-dimethylbutanoyl)piperidin-4-yl]phenyl}-3-(imidazo[1,2-a]pyridin-7-ylmethyl)urea]	0.691
CC1=C(C(=O)N2CCC(c3ccc(NC(=O)NCc4ccn5ccnc5c4)cc3)CC2)CCC1 [Example 941, 1-(imidazo[1,2-a]pyridin-7-ylmethyl)-3-(4-{1-[(2-methylcyclopent-1-en-1-yl)carbonyl]piperidin-4-yl}phenyl)urea]	0.519
CCC(CC)C(=O)N1CCC(c2ccc(NC(=O)NCc3ccn4ccnc4c3)cc2)CC1 [Example 942, 1-{4-[1-(2-ethylbutanoyl)piperidin-4-yl]phenyl}-3-(imidazo[1,2-a]pyridin-7-ylmethyl)urea]	1.02
O=C(NCc1ccn2ccnc2c1)Nc1ccc(C2CCN(C(=O)COc3ccc(F)cc3)CC2)cc1 [Example 943, 1-(4-{1-[(4-fluorophenoxy)acetyl]piperidin-4-yl}phenyl)-3-(imidazo[1,2-a]pyridin-7-ylmethyl)urea]	24.4
COc1ccc(C(=O)N2CCC(c3ccc(NC(=O)NCc4ccn5ccnc5c4)cc3)CC2)c(OC)c1 [Example 944, 1-{4-[1-(2,4-dimethoxybenzoyl)piperidin-4-yl]phenyl}-3-(imidazo[1,2-a]pyridin-7-ylmethyl)urea]	3.36
O=C(NCc1ccn2ccnc2c1)Nc1ccc(C2CCN(C(=O)C3CC=CCC3)CC2)cc1 (centres unmarked) [Example 945, 1-{4-[1-(cyclohex-3-en-1-ylcarbonyl)piperidin-4-yl]phenyl}-3-(imidazo[1,2-a]pyridin-7-ylmethyl)urea]	2.38
COc1ccc(OC)c(C(=O)N2CCC(c3ccc(NC(=O)NCc4ccn5ccnc5c4)cc3)CC2)c1 [Example 946, 1-{4-[1-(2,5-dimethoxybenzoyl)piperidin-4-yl]phenyl}-3-(imidazo[1,2-a]pyridin-7-ylmethyl)urea]	5.94
COc1ccccc1CC(=O)N1CCC(c2ccc(NC(=O)NCc3ccn4ccnc4c3)cc2)CC1 [Example 947, 1-(imidazo[1,2-a]pyridin-7-ylmethyl)-3-(4-{1-[(2-methoxyphenyl)acetyl]piperidin-4-yl}phenyl)urea]	3.28
O=C(NCc1ccn2ccnc2c1)Nc1ccc(C2CCN(C(=O)C(CO)c3ccccc3)CC2)cc1 (centres unmarked) [Example 948, 1-{4-[1-(3-hydroxy-2-phenylpropanoyl)piperidin-4-yl]phenyl}-3-(imidazo[1,2-a]pyridin-7-ylmethyl)urea]	5.39
COc1cccc(OC)c1C(=O)N1CCC(c2ccc(NC(=O)NCc3ccn4ccnc4c3)cc2)CC1 [Example 949, 1-{4-[1-(2,6-dimethoxybenzoyl)piperidin-4-yl]phenyl}-3-(imidazo[1,2-a]pyridin-7-ylmethyl)urea]	25.4
CCN(CC)CCC(=O)N1CCC(c2ccc(NC(=O)NCc3ccn4ccnc4c3)cc2)CC1 [Example 950, 1-{4-[1-(N,N-diethyl-beta-alanyl)piperidin-4-yl]phenyl}-3-(imidazo[1,2-a]pyridin-7-ylmethyl)urea]	634
Cc1cc(C(=O)N2CCC(c3ccc(NC(=O)NCc4ccn5ccnc5c4)cc3)CC2)cc(Cl)n1 [Example 951, 1-(4-{1-[(2-chloro-6-methylpyridin-4-yl)carbonyl]piperidin-4-yl}phenyl)-3-(imidazo[1,2-a]pyridin-7-ylmethyl)urea]	63.9
